Test results: US10676440B2, “Crystalline forms of an NK-1 antagonist” (Helsinn Healthcare SA, priority 2014, dated 2020)
Several values for one entry are separate records, joined by “and”; a condition that tells them apart may be missing. Equal entries are not always repeated.

Columns and labels:
in vivo [1] = conditions: for AUC(0-t): AUC (0-100 h)
Method: In Example 10, the pharmacokinetics of the compound of Formula I in dogs following single intravenous and oral administration was evaluated and the oral bioavailability of five different salts of the compound of Formula I was compared. The compound of Formula I was administered to dogs as described in Table 12. The doses are expressed in mg of free base.
The experiments were performed in 15 male dogs (bodyweight 11-18 kg) from RCC Ltd., Biotechnology and Animal Breeding Division, Wolferstrasse 4, CH-4414, Fullinsdorf, Switzerland. The animals were housed under standard laboratory conditions throughout the study period.
For the pharmacokinetic studies, 1 mL blood samples were collected from the cephalic vein of the dogs via catheter at 15, 30 min and at 1, 2, 3, 4, 6, 8, 24, 32, 48, 56, 72, 80, 96, and 100 (or 104) hours following oral dosing. After intravenous administration, blood samples were collected at 5, 15, 30 min and 1, 2, 3, 4, 6, 8, 24, 32, 48, 56, 75, 102, 120, 128, 144, 152, 168, 176, 192, and 200 hours. Collection tubes contained EDTA/NaF as anticoagulant and stabilizer. After centrifugation, plasma was removed and stored deep frozen at approximately −20° C. until analysis using a specific LC-MS method.
Aliquots of 40 μL plasma were mixed with 50 μL buffer at pH 5, 50 μL internal standard of Formula I (1 μg/mL in 1-chlorobutane) and 250 μL butylacetate and then shaken for 10 min. After centrifugation, 200 μL of the supernatant were evaporated to dryness at 45° C. under a stream of nitrogen. The residue was reconstituted with 200 μL acetonitrile/1% formic acid in water (30/70, v/v). Aliquots of 30 μL were injected onto the analytical column (Waters, Symmetry C8, 2.1×150 mm, 5 μm).
Separation occurred by gradient elution using a solvent A (acetonitrile) and solvent B (1% formic acid in water). The flow rate was 0.3 mL/min and the gradient elution was: […]
The sample passed to the ion-spray interface of the single quadrupole mass spectrometer. Selected ion monitoring mode (SIM) was used for mass spectrometric detection. Quantification was based on peak area ratios and calibration curve established between 2 and 5000 ng/mL.
To a 100 μL sample aliquot were added 200 μL of a mixture of acetonitrile/ethanol containing the deuterated internal standard, to precipitate plasma proteins. After vortex mixing and centrifugation, aliquots of the supernatants were transferred to 96-deel-well plates and injected for analysis (5 μL). Following enrichment and cleanup on the trapping column, the analyte was eluted and separated by gradient elution on a 2.1*30 mm analytical column (XTerra MS C18). The effluent from the analytical column was passed to the turbo ion spray vie a divert valve.
Calibration standards were prepared in dog plasma. The calibration range was from 10-5000 ng/mL. In each analytical series, a set of calibration standards was worked up and run with the unknowns. Calibration was then performed by computing a weighted (1/X^2) least-squares linear regression line of the measured peak area ratios (Y) (analyte to internal standard) versus the spiked concentrations (X). The drug concentrations of the unknown samples were then calculated from this regression line (UNICHROM). The performance of the analytical procedure during sample analysis was monitored. With each analytical series, quality control (QC) samples in dog plasma, spiked with known amounts of the analyte, were run together with the study samples.
The pharmacokinetic parameters were estimated by non-compartmental analysis, using the pharmacokinetic evaluation program WinNOnlin [1]. AUC(0-inf.) was calculated applying the linear trapezoidal rule and extrapolation to infinity using the apparent elimination rate constant kz and the calculated concentration at the last measurable time point. AUClast values were calculated by linear trapezoidal rule from time zero to time of last measureable time point.

in vivo [2] = assay: in vivo
Method: In Example 11, the pharmacokinetics of the compound of Formula I was evaluated following single intravenous, intraperitoneal, and oral administration to rats to compare the oral bioavailability of two different formulations and to measure the brain penetration after intravenous administration.
A solution of the compound of Formula I (4.7 mg/mL) in water and a suspension of the compound of Formula I (5 mg/mL) in SSV (standard suspension vehicle) were prepared.
The experiments were performed in 20 male rats (Strain RoRo Fuellinsdorf, body weight 230-290 g) from Biological Research Laboratories, Fuellinsdorf, Switzerland. The animals were housed under standard laboratory conditions throughout the study period. After an acclimatization period of 3 days, the rats were implanted with chronic jugular catheters under pentobarbital anesthesia. After surgery the rats were on recovery for 2 days before dosing. They had free access to water and food during the experiment.
For the pharmacokinetic studies, 0.4 mL blood samples were collected at different time points, up to 72 hours post-dose, from the jugular vein of the rats via catheter. For the study of brain and CSF penetration, 2 mL blood samples as well as CSF and brain were collected between 0.3 and 2 hours post-dose from one rat at each time point. Collection tubes contained EDTA/NAF as anticoagulant and stabilizer, respectively. After centrifugation, plasma was removed. Plasma, CSF and brain samples were stored deep-frozen at approximately −20° C. until analysis using a specific LC-MS method.
Aliquots of plasma samples of 40 μL were mixed with 50 μL buffer pH 9, 50 μL of a Formula I internal standard (1 μg/mL 1-chlorobutane) and 250 μL butylacetate and then shaken for 10 min. After centrifugation, 200 μL of the supernatant were evaporated to dryness at 45° C. under a stream of nitrogen. The residue was reconstituted with 200 μL acetonitrile/1% formic acid in water (30/70, v/v). An aliquot of 30 μL was injected onto an analytical column (Waters, Symmetry C8, 2.1×150 mm, 5 μm).
The sample passed to the ion-spray interface of the single quadrupole mass spectrometer. Selected ion monitoring mode (SIM) was used for mass spectrometric detection. Quantification was based on peak area ratios and calibration curve established by weighted (1/x^2) linear regression. The calibration curve was established between 5 and 5000 ng/mL using dog plasma as matrix. Data acquisition and integration of SIM chromatograms were performed using MacQuan (version 1.6) from Perkin-Elmer Sciex.
The pharmacokinetic parameters were estimated by non-compartmental analysis, using the pharmacokinetic evaluation program WinNOnlin [1]. AUC(0-inf) was calculated applying the linear trapezoidal rule and extrapolation to infinity using the apparent elimination rate constant λz and the calculated concentration at the last measurable time point. AUClast values were calculated by linear trapezoidal rule from time zero to time of last measureable time point. Cmax, C(t), and Tmax were determined directly from the plasma concentration-time profiles. The apparent terminal half-life (T1/2) was derived from the equation: T1/2=ln2/λz. Means of the half-life were calculated by harmonic means. Plasma clearance, CL, was calculated as D/AUC(0-inf.). Volume of distribution, Vz, was calculated as CL/λz. The absolute bioavailability was calculated from plasma concentration data as follows: […]
A solution of Formula I (hydrochloride salt) was administered intravenously at a dose of 9.4 mg/kg to 2 male rats in two subsequent experiments. In both studies, blood samples were obtained at 0.083, 0.25, 0.5, 1, 2, 4, 6, 8, and 24 h after intravenous application and in addition at 48 and 72 h in the study.

[3] = Moisture adsorption/desorption (DVS), hygroscopicity; format: physicochemical
Method: Moisture Adsorption/Desorption data was collected on a DVS-1 (SMS Surface Measurements Systems) moisture balance system. The sorption/desorption isotherms were measured stepwise in a range of 0% RH to 90% RH at 25° C. A weight change of <0.002 mg/min was chosen as the criterion to switch to the next level of relative humidity (with a maximum equilibration time of 6 hours if the weight criterion was not met). The data were corrected for the initial moisture content of the samples so that the weight after drying the sample at 0% relative humidity was taken as the zero point. The hygroscopicity of a given substance was characterized, in accordance with the European Phamacopoeia (Technical Guide 1999), by the increase in mass when the relative humidity is raised from 0% RH to 90% RH, as defined below (where weight increase=x):
Slightly hygroscopic: 0.2%≤x<2.0%
Very hygroscopic: x≥15.0%
Deliquescent: Sufficient liquid as adsorbed to form a liquid

[4] = male, RoRo Fuellinsdorf, rat, in vivo, po, 10 mg/kg
[5] = dogs, single oral, capsule, 120 mg/dog as free base, Protocol A, individual dogs
[6] = dogs, single oral, capsule, 120 mg/dog as free base, Protocol A, individual dogs, listed as hydrochloride salt
[7] = rats NJ97, NJ98, head prints (water, p.o), title: single oral in SSV, listed as Formula I (HCl salt)
[8] = rats NJ99, NJ100, head prints (water, i.p.), title: single oral in water, 9.3 mg/kg free base, listed as Formula I (HCl salt), 9.3 mg/kg
[9] = rats NJ101, NJ102, water, i.v., 9.3 mg/kg free base, listed as Formula I (HCl salt), 9.3 mg/kg

## Cc1ccccc1-c1cc(N2CCN(C)CC2)ncc1N(C)C(=O)C(C)(C)c1cc(C(F)(F)F)cc(C(F)(F)F)c1 [Free Base, 2-(3,5-bis(trifluoromethyl)phenyl)-N,2-dimethyl-N-(6-(4-methylpiperazin-1-yl)-4-(o-tolyl)pyridin-3-yl)propanamide]
In vivo [1]; male, dog, in vivo, po, 70 mg
  AUC (0-100 h): 12800 ng·h/mL
  AUC (0-Inf.): 14500 ng·h/mL
  Cmax: 667 ng/mL
  T1/2: 35.7 h
  AUC(0-t): 16200 ng·h/mL
  AUC(0-inf): 19300 ng·h/mL
In vivo [1]; male, dog, in vivo, po, 70 mg, Cmax
  Cmax: 587 ng/mL
In vivo [1]; male, dog, in vivo, po, 70 mg, F (oral bioavailability)
  bioavailability: 64%
In vivo [1]; male, dog, in vivo, po, 70 mg, T1/2
  half-life: 40.4 h
In vivo [1]; male, dog, in vivo, po, 70 mg, Tmax
  Tmax: 4 to 6 h
In vivo [1]; male, dog, in vivo, po, 120 mg
  AUC (0-100 h): 17400 ng·h/mL
  AUC (0-Inf.): 22600 ng·h/mL
  Cmax: 757 ng/mL
  T1/2: 56.3 h
  AUC(0-t): 11000 ng·h/mL
  AUC(0-inf): 12700 ng·h/mL
In vivo [1]; male, dog, in vivo, po, 120 mg, Cmax
  Cmax: 614 ng/mL
In vivo [1]; male, dog, in vivo, po, 120 mg, T1/2
  half-life: 39.5 h
In vivo [1]; male, dog, in vivo, po, 120 mg, Tmax
  Tmax: 2 h
In vivo [1]; male, dog, in vivo, po, apparent terminal half-lives
  half-life: 36 to 56 h
In vivo [1]; male, dog, in vivo, po, oral (systemic) bioavailability
  bioavailability: 34 to 83%
In vivo [2]; [4]
  Cmax: 796 ng/mL
  Tmax: 4 h
In vivo [2]; male, RoRo Fuellinsdorf, rat, in vivo, po, 10 mg/kg, Cmax
  Cmax: 616 ng/mL
In vivo [2]; male, RoRo Fuellinsdorf, rat, in vivo, po, 10 mg/kg, Tmax
  Tmax: 2.2 h

## Cc1ccccc1-c1cc(N2CCN(C)CC2)ncc1N(C)C(=O)C(C)(C)c1cc(C(F)(F)F)cc(C(F)(F)F)c1 [Amorphous Form, 2-(3,5-bis(trifluoromethyl)phenyl)-N,2-dimethyl-N-(6-(4-methylpiperazin-1-yl)-4-(o-tolyl)pyridin-3-yl)propanamide]
[3]
  crystallization during the sorption isotherm measurement: No crystallization could be observed
[3]; 25° C., 0% RH to 90% RH
  Hygroscopicity (weight change 0 to 90%-RH): 1.5%
[3]; 25° C., 0% RH to 90% RH, European Pharmacopoeia classes
  Hygroscopicity classification: slightly hygroscopic
[3]; two cycles
  moisture adsorbed: up to 1.5 % w/w

## Cc1ccccc1-c1cc(N2CCN(C)CC2)ncc1N(C)C(=O)C(C)(C)c1cc(C(F)(F)F)cc(C(F)(F)F)c1.Cl [Hydrochloride]
In vivo [1]; [5]
  AUC (0-100 h): 25900 ng·h/mL and 20900 ng·h/mL
  AUC (0-Inf.): 36400 ng·h/mL and 26900 ng·h/mL
  F (oral bioavailability): 91.4% and 66.7%
  T1/2: 48.2 h
In vivo [1]; [6]
  Cmax: 1110 ng/mL and 733 ng/mL
  F (oral bioavailability): 91% and 67%
  T1/2: 64 h and 44 h
  Tmax: 1 h and 4 h
In vivo [2]; rats NJ97, NJ98, head prints (water, p.o), title: single oral in SSV, calculated with AUC 0-48 h, listed as Formula I (HCl salt)
  F: 42.4% and 53.7%
In vivo [2]; [7]
  AUC (0-48 h): 12000 ng·h/mL and 15200 ng·h/mL
  AUC (0-Inf. h): 12800 ng·h/mL and 15800 ng·h/mL
  Cmax: 616 ng/mL and 796 ng/mL
  T1/2: 11.6 h and 10.2 h
  Tmax: 2.2 h and 4.0 h
In vivo [2]; [8]
  AUC (0-48 h): 26200 ng·h/mL and 20100 ng·h/mL
  AUC (0-Inf. h): 37900 ng·h/mL and 34000 ng·h/mL
  Cmax: 933 ng/mL and 1060 ng/mL
  F: 98.6% and 75.7%
  T1/2: 26.5 h and 27.1 h
  Tmax: 6.3 h and 4.0 h
In vivo [2]; [9]
  AUC (0-48 h): 31700 ng·h/mL and 21400 ng·h/mL
  AUC (0-Inf. h), **calculated with AUC (0-72 h): 49300** ng · h/mL and 32300** ng · h/mL
  CL* (calculated with AUC (0-24 h)): 4.96 mL/min/kg and 7.35 mL/min/kg
  T1/2, ***without 72 h concentration: 25.5*** h and 18.2*** h
  Vz* (calculated with AUC (0-24 h)): 11.0 L/kg and 11.5 L/kg
In vivo [2]; rats, i.v.
  plasma concentrations at 72 h relative to those at 48 h: 4 times
In vivo [2]; rats, i.v., 9.4 mg/kg, n=4
  mean apparent terminal half-life: 19.8 h
In vivo [2]; rats, oral solution in water
  increase of plasma levels at 72 h post-dose over 48 h: very small
In vivo [2]; rats, oral solution in water, 4 rats
  mean (±SD) apparent terminal half-life: 13.6 h
In vivo [2]; rats, oral suspension in SSV
  increase of plasma levels at 72 h post-dose over 48 h: approximately 5 fold
